Measured values from publication PMC5218480 (PLoS ONE, 2017).

Test system: MV-4-11 cells
Assay: Gene expression microarray analysis (Affymetrix PrimeView) and GSEA
Type: cell-based, human
Design: RFU PODN (11730768_x_at) / Fold change /veh PODN (11730768_x_at) / RFU LINC00158 (11744669_a_at) / Fold change /veh LINC00158 (11744669_a_at) / RFU DUSP10 (11751237_a_at) / Fold change /veh DUSP10 (11751237_a_at) / RFU ID3 (11757404_x_at) / Fold change /veh ID3 (11757404_x_at) / RFU PLEKHG5 (11737974_s_at) / Fold change /veh PLEKHG5 (11737974_s_at) / RFU LRRC4B (11730491_at) / Fold change /veh LRRC4B (11730491_at) / RFU GIMAP4 (11747438_a_at) / Fold change /veh GIMAP4 (11747438_a_at) / RFU KRT8 (11758183_x_at) / Fold change /veh KRT8 (11758183_x_at) / RFU CNN1 (11734310_a_at) / Fold change /veh CNN1 (11734310_a_at) / RFU VPS37D (11726825_at) / Fold change /veh VPS37D (11726825_at) / RFU C10orf10 (11716522_x_at) / Fold change /veh C10orf10 (11716522_x_at) / RFU KIR2DL2 /// KIR2DL4 /// KIR2DL5A /// KIR2DL5B /// KIR2DS1 /// KIR2DS2 /// KIR2DS3 /// KIR2DS4 /// KIR3DL3 /// KIR3DL3 /// KIR3DS1 (11738374_at) / Fold change /veh KIR2DL2 /// KIR2DL4 /// KIR2DL5A /// KIR2DL5B /// KIR2DS1 /// KIR2DS2 /// KIR2DS3 /// KIR2DS4 /// KIR3DL3 /// KIR3DL3 /// KIR3DS1 (11738374_at) / RFU C1QL1 (11718748_at) / Fold change /veh C1QL1 (11718748_at) / RFU TMPRSS4 (11747572_a_at) / Fold change /veh TMPRSS4 (11747572_a_at) / RFU HAMP (11756126_x_at) / Fold change /veh HAMP (11756126_x_at) / RFU RNFT2 (11725882_a_at) / Fold change /veh RNFT2 (11725882_a_at) / RFU NR4A2 (11747474_a_at) / Fold change /veh NR4A2 (11747474_a_at) / RFU ABCC12 (11746883_a_at) / Fold change /veh ABCC12 (11746883_a_at) / RFU TMEM136 (11760407_x_at) / Fold change /veh TMEM136 (11760407_x_at) / RFU CLDN22 /// WWC2 (11732394_at) / Fold change /veh CLDN22 /// WWC2 (11732394_at) / RFU HLA-DPB1 (11760878_x_at) / Fold change /veh HLA-DPB1 (11760878_x_at) / RFU SPINT1 (11716480_a_at) / Fold change /veh SPINT1 (11716480_a_at) / RFU GAP43 (11754022_s_at) / Fold change /veh GAP43 (11754022_s_at) / RFU A4GNT (11735810_at) / Fold change /veh A4GNT (11735810_at) / RFU PRB3 (11715151_x_at) / Fold change /veh PRB3 (11715151_x_at) / RFU TUBB4B (11761932_at) / Fold change /veh TUBB4B (11761932_at) / RFU CAPN14 (11732068_a_at) / Fold change /veh CAPN14 (11732068_a_at) / RFU TMCC2 (11721928_a_at) / Fold change /veh TMCC2 (11721928_a_at) / RFU IRGQ (11745062_a_at) / Fold change /veh IRGQ (11745062_a_at) / RFU FAM174B (11720279_a_at) / Fold change /veh FAM174B (11720279_a_at) / RFU TMPRSS4 (11748680_a_at) / Fold change /veh TMPRSS4 (11748680_a_at) / RFU FAM212B (11763350_a_at) / Fold change /veh FAM212B (11763350_a_at) / RFU PLEKHG5 (11743358_a_at) / Fold change /veh PLEKHG5 (11743358_a_at) / RFU ZSCAN30 (11745921_a_at) / Fold change /veh ZSCAN30 (11745921_a_at) / RFU CMKLR1 (11741424_a_at) / Fold change /veh CMKLR1 (11741424_a_at) / RFU LOC101060620 /// MAPK8IP1 (11723275_at) / Fold change /veh LOC101060620 /// MAPK8IP1 (11723275_at) / RFU SPTSSB (11747773_x_at) / Fold change /veh SPTSSB (11747773_x_at) / RFU PRSS12 (11739890_at) / Fold change /veh PRSS12 (11739890_at) / RFU BIN1 (11741810_x_at) / Fold change /veh BIN1 (11741810_x_at) / RFU WNT11 (11732464_a_at) / Fold change /veh WNT11 (11732464_a_at) / RFU C10orf10 (11716521_a_at) / Fold change /veh C10orf10 (11716521_a_at) / RFU C5orf56 (11738089_at) / Fold change /veh C5orf56 (11738089_at) / RFU CYB561 (11721691_x_at) / Fold change /veh CYB561 (11721691_x_at) / RFU ANKRD19P (11752326_a_at) / Fold change /veh ANKRD19P (11752326_a_at) / RFU OR2T12 /// OR2T33 /// OR2T8 (11738714_s_at) / Fold change /veh OR2T12 /// OR2T33 /// OR2T8 (11738714_s_at) / RFU VCAN (11748164_a_at) / Fold change /veh VCAN (11748164_a_at) / RFU JSRP1 (11732532_at) / Fold change /veh JSRP1 (11732532_at) / RFU KRTAP10-11 (11738290_x_at) / Fold change /veh KRTAP10-11 (11738290_x_at) / RFU MYO3A (11730013_a_at) / Fold change /veh MYO3A (11730013_a_at) / RFU EBF3 (11725865_a_at) / Fold change /veh EBF3 (11725865_a_at) / RFU CAMK2N1 (11719241_x_at) / Fold change /veh CAMK2N1 (11719241_x_at) / RFU C5orf56 (11738088_a_at) / Fold change /veh C5orf56 (11738088_a_at) / RFU OLFML3 (11715873_a_at) / Fold change /veh OLFML3 (11715873_a_at) / RFU LOC100653217 /// NTM (11731650_a_at) / Fold change /veh LOC100653217 /// NTM (11731650_a_at) / RFU MAPK11 (11762145_a_at) / Fold change /veh MAPK11 (11762145_a_at) / RFU FIZ1 (11724087_x_at) / Fold change /veh FIZ1 (11724087_x_at) / RFU OASL (11726364_x_at) / Fold change /veh OASL (11726364_x_at) / RFU SOX15 (11748057_x_at) / Fold change /veh SOX15 (11748057_x_at) / RFU CD79A (11719716_a_at) / Fold change /veh CD79A (11719716_a_at) / RFU HIST1H1D (11736915_at) / Fold change /veh HIST1H1D (11736915_at) / RFU CASKIN2 (11723855_a_at) / Fold change /veh CASKIN2 (11723855_a_at) / RFU LOC730098 (11760151_x_at) / Fold change /veh LOC730098 (11760151_x_at) / RFU OR4N2 (11742367_at) / Fold change /veh OR4N2 (11742367_at) / RFU PRRT2 (11749266_a_at) / Fold change /veh PRRT2 (11749266_a_at) / RFU SNX32 (11753110_a_at) / Fold change /veh SNX32 (11753110_a_at) / RFU CDHR5 (11726645_a_at) / Fold change /veh CDHR5 (11726645_a_at) / RFU RCAN1 (11760418_a_at) / Fold change /veh RCAN1 (11760418_a_at) / RFU FAM167A (11723789_a_at) / Fold change /veh FAM167A (11723789_a_at) / RFU FAM26E (11764081_at) / Fold change /veh FAM26E (11764081_at) / RFU ISYNA1 (11749810_s_at) / Fold change /veh ISYNA1 (11749810_s_at) / RFU ACY1 (11761880_at) / Fold change /veh ACY1 (11761880_at) / RFU 11764098_at / Fold change /veh 11764098_at / RFU SAMD14 (11745864_x_at) / Fold change /veh SAMD14 (11745864_x_at) / RFU NPB (11741838_a_at) / Fold change /veh NPB (11741838_a_at) / RFU TMPRSS6 (11731388_a_at) / Fold change /veh TMPRSS6 (11731388_a_at) / RFU KRTAP10-2 (11738614_at) / Fold change /veh KRTAP10-2 (11738614_at) / RFU ARHGAP8 /// PRR5-ARHGAP8 (11727945_x_at) / Fold change /veh ARHGAP8 /// PRR5-ARHGAP8 (11727945_x_at) / RFU KRTAP5-7 /// NADSYN1 (11734609_at) / Fold change /veh KRTAP5-7 /// NADSYN1 (11734609_at) / RFU RASL12 (11751679_a_at) / Fold change /veh RASL12 (11751679_a_at) / RFU CDKN2B (11736163_a_at) / Fold change /veh CDKN2B (11736163_a_at) / RFU PRF1 (11729649_at) / Fold change /veh PRF1 (11729649_at) / RFU, ZNF638 /// ZNF638-IT1 / Fold change vs veh, ZNF638 /// ZNF638-IT1 / RFU, PANK3 / Fold change vs veh, PANK3 / RFU, SH3YL1 / Fold change vs veh, SH3YL1 / RFU, ZEB2 / Fold change vs veh, ZEB2 / RFU, NRIP1 / Fold change vs veh, NRIP1 / RFU, PTTG1IP / Fold change vs veh, PTTG1IP / RFU, CAPN2 / Fold change vs veh, CAPN2 / RFU, MED14 / Fold change vs veh, MED14 / RFU, SNORA58 / Fold change vs veh, SNORA58 / RFU, C1orf63 / Fold change vs veh, C1orf63 / RFU, LRRFIP1 / Fold change vs veh, LRRFIP1 / RFU, NDUFAF7 / Fold change vs veh, NDUFAF7 / RFU, SLC12A2 / Fold change vs veh, SLC12A2 / RFU, IBTK / Fold change vs veh, IBTK / RFU, ESF1 / Fold change vs veh, ESF1 / Fold change vs veh, TMEM50B / RFU, TAOK1 / Fold change vs veh, TAOK1 / RFU, ACBD3 / Fold change vs veh, ACBD3 / RFU, TMA16 / Fold change vs veh, TMA16 / RFU, RWDD3 / Fold change vs veh, RWDD3 / RFU, BCAT1 / Fold change vs veh, BCAT1 / RFU, EDEM3 / Fold change vs veh, EDEM3 / RFU, TMEM33 / Fold change vs veh, TMEM33 / RFU, WDR75 / Fold change vs veh, WDR75 / RFU, AHCTF1 / Fold change vs veh, AHCTF1 / RFU, TFRC / Fold change vs veh, TFRC / RFU, ZDHHC17 / Fold change vs veh, ZDHHC17 / RFU, NOM1 / Fold change vs veh, NOM1 / RFU, ARL8B / Fold change vs veh, ARL8B / RFU, ZBTB11 / Fold change vs veh, ZBTB11 / RFU, TAMM41 / Fold change vs veh, TAMM41 / RFU, KIAA1704 /// LOC100996395 / Fold change vs veh, KIAA1704 /// LOC100996395 / RFU, ING1 / Fold change vs veh, ING1 / RFU, TRMT61B / Fold change vs veh, TRMT61B / RFU, FUBP3 / Fold change vs veh, FUBP3 / RFU, TP53 / Fold change vs veh, TP53 / RFU, TNKS2 / Fold change vs veh, TNKS2 / RFU, ZFP14 / Fold change vs veh, ZFP14 / RFU, ACTR2 / Fold change vs veh, ACTR2 / RFU, PPP3R1 / Fold change vs veh, PPP3R1 / RFU, PIK3R1 / Fold change vs veh, PIK3R1 / RFU, HNRNPA1 / Fold change vs veh, HNRNPA1 / RFU, RNF170 / Fold change vs veh, RNF170 / RFU, ZNF28 / Fold change vs veh, ZNF28 / RFU, RNGTT / Fold change vs veh, RNGTT / RFU, OGT / Fold change vs veh, OGT / RFU, BRD1 / Fold change vs veh, BRD1 / RFU, MARS / Fold change vs veh, MARS / RFU, ZNF655 / Fold change vs veh, ZNF655 / RFU, FAHD1 / Fold change vs veh, FAHD1 / RFU, BDP1 / Fold change vs veh, BDP1 / RFU, LRRCC1 / Fold change vs veh, LRRCC1 / RFU, ARID1A / Fold change vs veh, ARID1A / RFU, ZNF146 / Fold change vs veh, ZNF146 / RFU, ZNF330 / Fold change vs veh, ZNF330 / RFU, GPN3 / Fold change vs veh, GPN3 / RFU, C9orf123 / Fold change vs veh, C9orf123 / RFU, N4BP2L2 / Fold change vs veh, N4BP2L2 / RFU, ARFIP1 / Fold change vs veh, ARFIP1 / RFU, FAM179B / Fold change vs veh, FAM179B / RFU, BCL10 / Fold change vs veh, BCL10 / RFU, UHRF1BP1L / Fold change vs veh, UHRF1BP1L / RFU, BET1 / Fold change vs veh, BET1 / RFU, CNOT2 / Fold change vs veh, CNOT2 / RFU, ZNF268 / Fold change vs veh, ZNF268 / Fold change vs veh, ZNF507 / RFU, DGCR2 / Fold change vs veh, DGCR2 / RFU, WDSUB1 / Fold change vs veh, WDSUB1 / Fold change vs veh, HSP90B1 /// MIR3652 / RFU, ADSS / Fold change vs veh, ADSS / RFU, GK / Fold change vs veh, GK / RFU, ZNF148 / Fold change vs veh, ZNF148 / RFU, TAF9 / Fold change vs veh, TAF9 / RFU, SLC1A5 / Fold change vs veh, SLC1A5 / RFU, SLMO2 / Fold change vs veh, SLMO2 / RFU, ABCC4 / Fold change vs veh, ABCC4 / RFU, LOC101060439 /// RAP1B / Fold change vs veh, LOC101060439 /// RAP1B / RFU, RFX7 / Fold change vs veh, RFX7 / RFU, GTPBP10 / Fold change vs veh, GTPBP10 / RFU, CNEP1R1 / Fold change vs veh, CNEP1R1 / RFU, BIVM-ERCC5 /// ERCC5 / Fold change vs veh, BIVM-ERCC5 /// ERCC5 / RFU, ILF3 / Fold change vs veh, ILF3 / RFU 11762660_at / Fold change /veh 11762660_at / RFU VCAN (11757783_s_at) / Fold change /veh VCAN (11757783_s_at) / RFU DDX43 (11728927_at) / Fold change /veh DDX43 (11728927_at) / RFU KRT8 (11758188_x_at) / Fold change /veh KRT8 (11758188_x_at) / RFU NKD1 (11759106_at) / Fold change /veh NKD1 (11759106_at) / RFU SRD5A1 (11742802_a_at) / Fold change /veh SRD5A1 (11742802_a_at) / RFU TPSAB1 /// TPSB2 (11721975_s_at) / Fold change /veh TPSAB1 /// TPSB2 (11721975_s_at) / RFU GSTM3 (11746129_a_at) / Fold change /veh GSTM3 (11746129_a_at) / RFU IL23R (11737362_x_at) / Fold change /veh IL23R (11737362_x_at) / RFU TMEM51 (11727254_a_at) / Fold change /veh TMEM51 (11727254_a_at) / RFU PIWIL2 (11732686_x_at) / Fold change /veh PIWIL2 (11732686_x_at) / RFU ORM1 (11744905_x_at) / Fold change /veh ORM1 (11744905_x_at) / RFU CCDC152 (11743942_at) / Fold change /veh CCDC152 (11743942_at) / RFU ECM1 (11717891_a_at) / Fold change /veh ECM1 (11717891_a_at) / RFU IL23R (11748794_a_at) / Fold change /veh IL23R (11748794_a_at) / RFU TNFAIP8L3 (11732012_x_at) / Fold change /veh TNFAIP8L3 (11732012_x_at) / RFU MBOAT4 (11741988_at) / Fold change /veh MBOAT4 (11741988_at) / RFU 11764193_at / Fold change /veh 11764193_at / RFU TMEM53 (11763286_at) / Fold change /veh TMEM53 (11763286_at) / RFU MAGEB2 (11727129_at) / Fold change /veh MAGEB2 (11727129_at) / RFU TMEM200A (11744735_a_at) / Fold change /veh TMEM200A (11744735_a_at) / RFU CCDC152 (11751479_a_at) / Fold change /veh CCDC152 (11751479_a_at) / RFU FAM211A (11726209_a_at) / Fold change /veh FAM211A (11726209_a_at) / RFU RGS16 (11746705_a_at) / Fold change /veh RGS16 (11746705_a_at) / RFU VCAN (11755009_s_at) / Fold change /veh VCAN (11755009_s_at) / RFU RHOB (11743442_s_at) / Fold change /veh RHOB (11743442_s_at) / RFU RGS16 (11720943_a_at) / Fold change /veh RGS16 (11720943_a_at) / RFU RGS16 (11720944_at) / Fold change /veh RGS16 (11720944_at) / RFU, VPS4B / Fold change vs veh, VPS4B / RFU, CREB1 / Fold change vs veh, CREB1 / RFU, DNAJC13 / Fold change vs veh, DNAJC13 / RFU, GNAQ / Fold change vs veh, GNAQ / RFU, CDK5R1 / Fold change vs veh, CDK5R1 / RFU, ZRANB3 / Fold change vs veh, ZRANB3 / RFU, CUL4A / Fold change vs veh, CUL4A / RFU, CCNY / Fold change vs veh, CCNY / RFU, UFL1 / Fold change vs veh, UFL1 / RFU, COG3 / Fold change vs veh, COG3 / RFU, DIAPH2 / Fold change vs veh, DIAPH2 / RFU, SKA2 / Fold change vs veh, SKA2 / RFU, AFF3 / Fold change vs veh, AFF3 / RFU, LMF1 / Fold change vs veh, LMF1 / RFU, IPO11 / Fold change vs veh, IPO11 / RFU, DFFB / Fold change vs veh, DFFB / RFU, FOXP1 / Fold change vs veh, FOXP1 / RFU, CARD8 / Fold change vs veh, CARD8 / RFU, STRN3 / Fold change vs veh, STRN3 / RFU, ADK / Fold change vs veh, ADK / RFU, RASSF2 / Fold change vs veh, RASSF2 / RFU, WIPF1 / Fold change vs veh, WIPF1 / RFU, LARP1B / Fold change vs veh, LARP1B / RFU, RASA1 / Fold change vs veh, RASA1 / RFU, RB1 / Fold change vs veh, RB1 / RFU, PPFIA1 / Fold change vs veh, PPFIA1 / RFU, MAT2A / Fold change vs veh, MAT2A / RFU, CCT5 / Fold change vs veh, CCT5 / RFU, WDR92 / Fold change vs veh, WDR92 / RFU, CUX1 / Fold change vs veh, CUX1 / RFU, TTC7A / Fold change vs veh, TTC7A / RFU, TMEM135 / Fold change vs veh, TMEM135 / RFU, DEPTOR / Fold change vs veh, DEPTOR / RFU, CPM / Fold change vs veh, CPM / RFU, DNAJB6 / Fold change vs veh, DNAJB6 / RFU, CACNA2D3 / Fold change vs veh, CACNA2D3 / RFU, DTX4 / Fold change vs veh, DTX4 / RFU, TFCP2 / Fold change vs veh, TFCP2 / RFU, GMCL1 /// GMCL1P1 / Fold change vs veh, GMCL1 /// GMCL1P1 / RFU, AEBP2 / Fold change vs veh, AEBP2 / RFU, SNHG1 /// SNORD22 /// SNORD25 /// SNORD26 /// SNORD27 /// SNORD28 /// SNORD29 /// SNORD31 / Fold change vs veh, SNHG1 /// SNORD22 /// SNORD25 /// SNORD26 /// SNORD27 /// SNORD28 /// SNORD29 /// SNORD31 / Fold change (Aza/veh), C12orf56 (ProbeSet 11735607_a_at) / Fold change (ACY-1035/veh), C12orf56 (ProbeSet 11735607_a_at) / Fold change (Aza/veh), FGFR1OP (ProbeSet 11751329_s_at) / Fold change (ACY-1035/veh), FGFR1OP (ProbeSet 11751329_s_at) / Fold change (Aza/veh), VPS36 (ProbeSet 11739960_a_at) / Fold change (ACY-1035/veh), VPS36 (ProbeSet 11739960_a_at) / RFU SYPL1 (11715823_x_at) / Fold change /veh SYPL1 (11715823_x_at) / RFU IGFBP7 (11715501_s_at) / Fold change /veh IGFBP7 (11715501_s_at) / RFU REEP3 (11722064_at) / Fold change /veh REEP3 (11722064_at) / RFU IGLL1 (11728026_x_at) / Fold change /veh IGLL1 (11728026_x_at): dose or concentration left out as unconfirmed
Settings: ProbeSet 11717308_a_at; LIST B

Nc1ncn([C@@H]2O[C@H](CO)[C@@H](O)[C@H]2O)c(=O)n1 [azacitidine]
Fold change vs veh, WDR75: 1.10
